The values below come from US7786165B2, “Aminophenylpropanoic acid derivative” (Takeda Pharmaceutical Company Limited, priority 2004, dated 2010).

Each structure is given as a SMILES string. Counter-ions that a name gives are not always drawn.

The target in this assay is T1, human GPR40 (Homo sapiens, UniProt O14842).
T1 construct: expressed in transfected cells; host or cells: CHO cell line stably expressing human GPR40
Kind of assay: Determination of EC50 for human GPR40: intracellular calcium change by FLIPR in CHO cells stably expressing human GPR40. It is filed as cell-based. Conditions: CHO cell line stably expressing human GPR40, changes in intracellular calcium concentration, Fluo3-AM, read-out: EC50 (Receptor Function Modulating Action On GPR40). How it is done:
Determination of EC50 of the Compound of the Present Invention for Human GPR40
For determination of EC50, CHO cell line that stably expressed human GPR40 was used. Unless otherwise indicated, the CHO cell line was cultured using α-MEM medium (Invitrogen) containing 10% fetal calf serum (Invitrogen).
The cells cultured to nearly confluent were rinsed with PBS (Invitrogen) on the previous day of the assay, peeled off with 0.05% Trypsin-EDTA solution (Invitrogen) and recovered by centrifugation. The number of the obtained cells was counted, and the cells were diluted such that 3×10^5 cells were contained per 1 mL of the medium, dispensed to a black welled 96-well plate (coster) by 100 μL per well and cultured overnight in a CO2 incubator. Various test compounds were added to the CHO cells thus prepared, and the changes in the intracellular calcium concentration were measured using FLIPR (Molecular Device). The below-mentioned pre-treatment was applied to measure changes in the intracellular calcium concentration by FLIPR.
First, an assay buffer for adding a fluorescence dye Fluo3-AM (DOJIN) to the cells, or for washing the cells immediately before FLIPR assay was prepared. To a solution of HBSS (Invitrogen, 1000 mL) to which 1M HEPES (pH 7.4, DOJIN, 20 mL) added (hereinafter HBSS/HEPES solution) was added a solution (10 mL) obtained by dissolving probenecid (Sigma, 710 mg) in 1N NaOH (5 mL), and adding and mixing an HBSS/HEPES solution (5 mL), and the resulting solution was used as an assay buffer. Next, Fluo3-AM (50 μg) was dissolved in dimethylsulfoxide (Wako, 21 μL), and an equivalent amount of 20% pluronic acid (Molecular Probes) was added and mixed. The solution was added to the assay buffer (10.6 mL) supplemented with fetal vovine serum (105 μL) to give a fluorescence dye solution. The medium of the CHO cells inoculated to the black welled 96-well plate on the previous day of assay was removed, the fluorescence dye solution was immediately dispensed by 100 μL per well and the cells were cultured in a CO2 incubator for 1 hr to allow intake of the fluorescence dye by the cells. The cells after the culture were washed with the above-mentioned assay buffer and set on FLIPR. The test compound was diluted with dimethylsulfoxide in advance, dispensed to polypropylene 96-well plate (sample plate) by […], and cryopreserved at −20° C. To the thawed sample plate was added an assay buffer containing 0.015% CHAPS (DOJIN) by 198 μL, and simultaneously set on FLIPR together with the cell plate. After the aforementioned pre-treatment, changes in the intracellular calcium concentration upon addition of various test compounds as measured by FLIPR. Based on the results, a dose-response curve of each test compound was formed and EC50 was calculated.

T1 sequence (O14842 whole entry): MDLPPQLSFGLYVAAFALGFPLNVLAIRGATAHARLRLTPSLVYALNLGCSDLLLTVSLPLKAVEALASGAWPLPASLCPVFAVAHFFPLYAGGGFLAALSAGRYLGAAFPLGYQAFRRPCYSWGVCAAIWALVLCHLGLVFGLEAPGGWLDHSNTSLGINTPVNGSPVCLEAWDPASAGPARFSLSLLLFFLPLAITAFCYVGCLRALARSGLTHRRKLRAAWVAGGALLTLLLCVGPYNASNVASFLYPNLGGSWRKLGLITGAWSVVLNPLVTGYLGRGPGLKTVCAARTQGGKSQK

For `Cc1cc(OCCCN2CCCC2=O)cc(C)c1-c1cccc(CNc2ccc(CCC(=O)O)c(F)c2)c1` [Example 149, 3-{4-[({2′,6′-dimethyl-4′-[3-(2-oxopyrrolidin-1-yl)propoxy]biphenyl-3-yl}methyl)amino]-2-fluorophenyl}propanoic acid benzenesulfonate], the EC50 was less than 100 nM.
The value for `Cc1cc(OCC2(C)COC2)cc(C)c1-c1cccc(CNc2ccc(CCC(=O)O)c(F)c2)c1` [Example 151, 3-{4-[({2′,6′-dimethyl-4′-[(3-methyloxetan-3-yl)methoxy]biphenyl-3-yl}methyl)amino]-2-fluorophenyl}propanoic acid methanesulfonate] was less than 100 nM; that for `COc1cccc(Oc2cc(C)c(-c3cccc(CNc4ccc(CCC(=O)O)c(F)c4)c3)c(C)c2)n1` [Example 164, 3-{2-fluoro-4-[({4′-[(6-methoxypyridin-2-yl)oxy]-2′,6′-dimethylbiphenyl-3-yl}methyl)amino]phenyl}propanoic acid dihydrochloride] was less than 100 nM.
The value for `CC(C)(C)c1cc(COc2ccccc2)n(Cc2ccc(CNc3ccc(CCC(=O)O)c(F)c3)cc2)n1` [Example 169, 3-{4-[(4-{[3-tert-butyl-5-(phenoxymethyl)-1H-pyrazol-1-yl]methyl}benzyl)amino]-2-fluorophenyl}propanoic acid dimethanesulfonate] was less than 100 nM; that for `CC(C)(C)c1cc(OCc2ccccc2)n(Cc2ccc(CNc3ccc(CCC(=O)O)c(F)c3)cc2)n1` [Example 171, 3-{4-[(4-{[5-(benzyloxy)-3-tert-butyl-1H-pyrazol-1-yl]methyl}benzyl)amino]-2-fluorophenyl}propanoic acid dimethanesulfonate] was less than 100 nM.
In the case of `CCOCCS(=O)(=O)c1cc(C)c(-c2cccc(CNc3ccc(CCC(=O)O)c(F)c3)c2)c(C)c1` [Example 184, 3-{4-[({4′-[(2-ethoxyethyl)sulfonyl]-2′,6′-dimethylbiphenyl-3-yl}methyl)amino]-2-fluorophenyl}propanoic acid], the EC50 was less than 100 nM.
The value for `Cc1cc(OCC2(O)CCS(=O)(=O)CC2)cc(C)c1-c1cccc(CNc2ccc(CCC(=O)O)c(F)c2)c1` [Example 188, 3-{2-fluoro-4-[({4′-[(4-hydroxy-1,1-dioxidotetrahydro-2H-thiopyran-4-yl)methoxy]-2′,6′-dimethylbiphenyl-3-yl}methyl)amino]phenyl}propanoic acid] was less than 100 nM.
As for `CCN(CCOc1cc(C)c(-c2cccc(CNc3ccc(CCC(=O)O)c(F)c3)c2)c(C)c1)C(C)=O` [Example 200, 3-(4-{[(4′-{2-[acetyl(ethyl)amino]ethoxy}-2′,6′-dimethylbiphenyl-3-yl)methyl]amino}-2-fluorophenyl)propanoic acid methanesulfonate], the EC50 was less than 100 nM.
The value for `Cc1cc(OC2CCS(=O)(=O)CC2)cc(C)c1-c1cccc(CNc2ccc(CCC(=O)O)c(F)c2)c1` [Example 204, 3-{4-[({4′-[(1,1-dioxidotetrahydro-2H-thiopyran-4-yl)oxy]-2′,6′-dimethylbiphenyl-3-yl}methyl)amino]-2-fluorophenyl}propanoic acid methanesulfonate] was less than 100 nM; that for `O=C(O)CCc1ccc(NC2CCc3cc(OCc4ccccc4)ccc32)cc1` (stereo not drawn) [Example 210, 3-(4-{[5-(benzyloxy)-2,3-dihydro-1H-inden-1-yl]amino}phenyl)propanoic acid] was less than 100 nM; that for `O=C(O)CCc1ccc(NC2CCc3c(Oc4ccccc4)cccc32)cc1` (stereo not drawn) [Example 212, 3-{4-[(4-phenoxy-2,3-dihydro-1H-inden-1-yl)amino]phenyl}propanoic acid] was less than 100 nM.
The value for `Cc1cccc(C)c1-c1cccc2c1CCC2Nc1ccc(CCC(=O)O)c(F)c1` (stereo not drawn) [Example 218, 3-(4-{[4-(2,6-dimethylphenyl)-2,3-dihydro-1H-inden-1-yl]amino}-2-fluorophenyl)propanoic acid] was less than 100 nM.

Usually EC50 stands for the concentration needed to bring the measured effect to its halfway point.
